Results as given in BindingDB's records for patent WO2022112919 (Pfizer, 2022).

These compounds were tested against T1, Transthyretin (Homo sapiens, UniProt P02766) (assay: Binding of Examples to Transthyretin - EC50 Determination).
Experimental: TTR SPA binding assays were performed in a final volume of 60 mI containing 100 ng human TTR (biotinylated recombinant protein) coupled to 25 pg SPA beads (streptavidin coated, Perkin Elmer, RPNQ0007) and 50 nM [3H] tafamidis (Moravek, MT-1003033), plus varying concentrations of test compound or vehicle. Briefly, assays were prepared at room temperature in 384-well plates (Corning, 3767) containing 200 nl_ of test compound in DMSO (or DMSO as vehicle). The plates also contained wells with a saturating concentration of unlabeled ligand (200 nl_ of 3 mM tafamidis or 3 mM thyroxine in DMSO) for measuring non-specific binding. Assays were initiated by addition of 20 mI of […] TTR protein in assay buffer (10 mM Tris pH 7.5, 150 mM NaCI, 0.25% Triton X-100) and 20 mI_ of 150 nM [3H] tafamidis in assay buffer. The plates were incubated 1 hour prior to addition of 20 mI_ of 1.25 mg/ml_ SPA beads diluted in assay buffer. The assays were incubated an additional 10 hours to allow binding to reach equilibrium and the amount of receptor-ligand complex was determined by liquid scintillation counting using a 1450 Microbeta Trilux (Wallac). The % effect values for test wells were calculated based on the total binding (vehicle, 0% effect) and non-specific binding (unlabeled ligand, 100% effect) wells on each assay plate. ECso values were then determined using a standard 4 parameter logistic dose response equation.

Row | Compound | EC50 [nM]
1 | Cc1n[nH]c(C)c1-c1cccc2ncsc12 [WO2022112919, Example 2] | 14
2 | Cc1[nH]nc(C#N)c1-c1ccc(C)c2scnc12 [WO2022112919, Example 8] | 20
3 | Cc1[nH]nc(C#N)c1-c1ccc(C(F)(F)F)c2scnc12 [WO2022112919, Example 9] | 36
4 | Cc1cc(-c2c(C)n[nH]c2C)c2ncsc2c1 [WO2022112919, Example 13] | 21
5 | COc1cc(-c2c(C)n[nH]c2C)c2ncsc2c1 [WO2022112919, Example 14] | 25
6 | Cc1n[nH]c(C)c1-c1cc(F)cc2scnc12 [WO2022112919, Example 15] | 21

Each compound was assayed against T1, Transthyretin (assay: KD Determination by SPR).
Experimental: Affinity and Reversibility -The binding affinity and kinetics of binding were measured using Surface Plasmon Resonance based binding assay. These experiments were carried out on Bruker SPR MASS-1 and MASS-2 instruments. There was no significant difference in results obtained on both these instruments. Bap-tagged TTR protein was captured on a Streptavidin coated sensor chip to achieve about 2000 to 3000 RUs of surface density. All the samples were prepared in buffer consisting of 10 mM Sodium Phosphate, pH 7.6, 100 mM KCI, 0.005% Tween-20 and 2% DMSO. The same buffer was used as the running buffer during the experiments. Compound samples were injected at a flow rate of 30 pL/min for 90 seconds of association time followed by at least 240 seconds of dissociation period. The compounds were tested in a concentration series consisting of at least 6 samples (usually 10) made with 5-fold, 3-fold, or 2-fold dilution. The highest concentration was […] or selected based on compound binding affinity observed in a previous experiment. […] The data were processed and analyzed using Bruker Analyzer and Scrubber to calculate binding affinities by fitting the data to 1:1 binding model. […] Tafamidis binds to TTR in a reversible manner with calculated residence time of around 40 seconds.

Row | Compound | Kd [nM]
7 | Cc1n[nH]c(C)c1-c1cccc2ncsc12 [WO2022112919, Example 2] | 17
8 | Cc1n[nH]c(C)c1-c1ccnc2scnc12 [WO2022112919, Example 19] | 39
